From the SangsterLogP compilation come the findings set out here.

SMILES strings stand for the structures.

`CCC(C)(C)c1ccc(CC(=O)O)cc1` gave a logP of 3.48. Take `Cc1cccc(C2C(=O)c3ccccc3C2=O)c1`: the logP was found to be 3.46. In the case of `O=C1c2ccccc2C(=O)C1c1ccc(C(F)(F)F)cc1`, the logP was 3.78. As to `CCc1cc(CC)cc(C2C(=O)c3ccccc3C2=O)c1`, the lipophilicity (logP) is 4.94. For `COc1cccc(C2C(=O)c3ccccc3C2=O)c1`, the logP came out at 2.88. With `CC(C)c1ccc(C2C(=O)c3ccccc3C2=O)cc1`, the logP stood at 4.43. The compound `Cc1cc(C)c(C(=O)O)c(C)c1` had a logP of 3.69. In turn, `O=C1c2ccccc2C(=O)C1c1ccc(Cl)cc1` came in with a logP of 3.61. In turn, `CCCCCCCCCCCC(=O)O` registered a logP of 4.92. Turning to `CCCCCCC(=O)O`, the logP turned out to be 2.42. Turning to `CC(C)c1cc(C(C)C)cc(C2C(=O)c3ccccc3C2=O)c1`, the logP amounted to 5.96. `CC(C)(C)c1ccc(C2C(=O)c3ccccc3C2=O)cc1` showed a logP of 4.88.

In the case of `CCCCCCCCCCC(=O)O`, the logP was determined as 4.42. In the case of `CCCCCCCCc1ccc(C2C(=O)c3ccccc3C2=O)cc1`, the logP amounted to 6.93. In turn, `O=C(O)Cc1ccc([N+](=O)[O-])cc1` registered a logP of 1.54.

In turn, `CCCOc1ccc(CC(=O)O)cc1` displayed a logP of 2.31.

In turn, `O=C1c2ccccc2C(=O)C1c1cccc(Cl)c1` gave a logP of 3.61. Consider `O=C(O)c1cc([N+](=O)[O-])ccc1O`, for which the logP worked out at 1.98. With `O=C1c2ccccc2C(=O)C1c1cccc(C(F)(F)F)c1` the figure was 3.78. With `CC(C)c1cccc(C2C(=O)c3ccccc3C2=O)c1` the figure was 4.43. In turn, `O=C(O)Cc1ccc(C2CCCC2)cc1` showed a logP of 3.44. For the compound `Cc1ccc(C2C(=O)c3ccccc3C2=O)cc1`, the logP was 3.46.

Take `COc1ccc(C2C(=O)c3ccccc3C2=O)cc1`: the logP worked out at 2.88. In turn, `CCCCCCc1ccc(CC(=O)O)cc1` returned a logP of 4.25. In the case of `O=C(O)Cc1ccccc1`, the logP is 1.41. In turn, `COc1cc(OC)cc(C2C(=O)c3ccccc3C2=O)c1` yielded a logP of 2.86. The result for `CC(C)(C)c1cc(C2C(=O)c3ccccc3C2=O)cc(C(C)(C)C)c1` reads 6.86. `CCCCCCCCC(=O)O` yielded a logP of 3.42. `O=C(O)CCCCCC(=O)O` showed a logP of 0.61. The result for `CCc1ccc(C2C(=O)c3ccccc3C2=O)cc1` reads 3.92. Turning to `CC(C)(C)c1cccc(C2C(=O)c3ccccc3C2=O)c1`, the logP amounted to 4.88. With `Cc1cc(C)cc(C2C(=O)c3ccccc3C2=O)c1` the figure was 4.02; with `Cc1ccc(C(=O)O)c(C)c1`, 3.01. In turn, `CCCc1ccc(CC(=O)O)cc1` returned a logP of 2.75.

The compound `O=[N+]([O-])c1cc(Br)c(O)c(Br)c1` yielded a logP of 3.07. The result for `Cc1cc(C)c(C)c(C(=O)O)c1C` reads 4.19.

In the case of `O=C1c2ccccc2C(=O)C1c1ccc(-c2ccccc2)cc1`, the logP was 4.79.

`O=C1c2ccccc2C(=O)C1c1cc(Cl)cc(Cl)c1`: the logP was determined as 4.32. Regarding `O=[N+]([O-])c1cc(Cl)c(O)c(Cl)c1`, the logP is 2.96.

`CCCCc1ccc(CC(=O)O)cc1` came in with a lipophilicity (logP) of 3.25. The result for `CCc1cccc(C2C(=O)c3ccccc3C2=O)c1` reads 3.92.

As to `O=C(O)Cc1ccc(I)cc1`, the logP came out at 2.53. Consider `CCCCCc1ccc(CC(=O)O)cc1`, for which the logP stood at 3.75. `O=C1c2ccccc2C(=O)C1c1ccc(Br)cc1` yielded a logP of 3.76. Compound `O=C(O)Cc1ccc(C2CCCCC2)cc1` had a logP of 3.81.
